Reference: patent US20260069584A1, “METHODS OF TREATING CHRONIC MYELOID LEUKEMIA USING THE TYROSINE KINASE INHIBITOR VODOBATINIB” (Sun Pharma Advanced Research Company Ltd., priority 2022, published 2026)

System: CP CML
Experiment: Part B: disease response in CP CML subjects
Format: in vivo, human
Excerpt: This was a Phase I/2, open-label, single-agent, multicenter, multi-dose, dose-escalation study in subjects with Philadelphia chromosome-positive Ph+ CML (CP CML, AP CML and BP CML) and Ph+ ALL. The primary objectives of this study were to determine the maximum tolerated dose (MTD; or recommended Phase 2 dose [RP2D]) of the compound of Formula I when administered orally and to evaluate its safety.
In this study, the dose-escalation cohort started with an accelerated titration study design (ATD) and shifted to a 3±3 design when subjects in the preceding ATD cohort experienced either grade 2 or higher adverse events (AEs) or dose-limiting toxicity (DLT) during Cycle 1 that was not clearly and incontrovertibly related to the underlying disease or concomitant medications. The DLT period consisted of 28 days (Cycle 1). Subjects experiencing DLTs were managed with dose delays and/or discontinuation and continued in the study until disease progression. Decisions to advance to a succeeding dose level occurred after the evaluation of safety and tolerability data for a given dose level.
Accordingly, the eligible subjects were treated in 4-week cycles of once daily self-administration of the compound of Formula I. The administration was after an overnight fast, or after maintaining approximately 2 hours of fasting before and after the dosing in all cycles.
For the cohorts, where the 3±3 design applies, 3 subjects were enrolled initially. If 2 of these subjects experienced a Grade 2 or more toxicity (that was not clearly and incontrovertibly related to the underlying disease or concomitant medications), subsequent cohorts were escalated according to smaller increments. Further, if there were no DLTs in the first 3 subjects, dose escalation to the next higher dose level was allowed to proceed. If 1 of the 3 subjects experienced a DLT, that dose level was expanded to 6 subjects (3 additional subjects were enrolled). If 2 subjects at a given dose level experienced a DLT, the MTD was considered to have been exceeded. The next lower dose level was expanded to 6 subjects, or if 6 subjects had already been enrolled and no more than 1 of the 6 subjects experienced a DLT, then this lower dose level was considered the MTD. Additional subjects were enrolled in dose escalation cohorts for further assessment of safety and efficacy of the compound of Formula 1 at doses that were tolerated (i.e., doses that have <2 DLTs in 6 enrolled subjects or <1 DLT in 3 enrolled subjects). Thus 204 mg was arrived at as MTD. A subject experiencing a DLT was allowed to continue therapy with a reduced dose. Subjects who experienced a DLT and recovered were treated at the next lower dose level until disease progression or other events requiring further dose reduction existed. For cohorts at Dose Level 2 or higher, a further dose reduction (i.e., up to 2 levels lower than their originally assigned dose) was implemented in the case of a further DLT or other non-DLT events requiring a dose reduction, if and when the event leading to dose reduction returned to Grade 1 or lower in severity. The reduced dose was re-escalated to the original or higher dose (i.e., the dose for which safety had been established in the dose escalation cohort) considering subject safety and response to the compound of Formula I. The subject was discontinued from treatment using the compound of Formula I, if dose reduction below 48 mg was required.
The study was conducted over a period of 60 months (5 years) which was divided in 28-days cycle. In the first two cycles, the dose administration was started on day 1 and the subject's assessments were performed on day 1, day 2, day 3, day 8, day 15 and day 22. From Cycle 3 onwards, the assessments were performed every 3 months (i.e., on day 28 of Cycle 3, followed by day 28 of Cycle 6 which was further followed by day 28 of Cycle 9). […]

## Cc1ccc(C(=O)NNC(=O)c2c(C)cccc2Cl)cc1C#Cc1cnc2ccccc2c1 [compound of Formula I, N′-(2-chloro-6-methylbenzoyl)-4-methyl-3-[2-(3-quinolyl)ethynyl]-benzohydrazide]
12 mg (N = 1) ESC
  Best Cytogenetic Response: Complete Response: 1(100)
  Best Cytogenetic Response: Major Cytogenetic Response: 1(100)
  Best Cytogenetic Response: Minimal Response: 0
  Best Cytogenetic Response: Minor Response: 0
  Best Cytogenetic Response: No Response: 0
  Best Cytogenetic Response: Partial Response: 0
  Best Hematologic Response: Complete Response: 1(100)
  Best Hematologic Response: Major Hematologic Response: 1(100)
  Best Hematologic Response: No Evidence of Leukemia: 0
  Best Hematologic Response: No Response: 0
  Best Molecular Response: Complete Response: 0
  Best Molecular Response: Major Response: 0
48 mg (N = 3) ESC
  Best Cytogenetic Response: Complete Response: 2(66.7)
  Best Cytogenetic Response: Major Cytogenetic Response: 2(66.7)
  Best Cytogenetic Response: Minimal Response: 0
  Best Cytogenetic Response: Minor Response: 0
  Best Cytogenetic Response: No Response: 0
  Best Cytogenetic Response: Partial Response: 0
  Best Hematologic Response: Complete Response: 2(66.7)
  Best Hematologic Response: Major Hematologic Response: 2(66.7)
  Best Hematologic Response: No Evidence of Leukemia: 0
  Best Hematologic Response: No Response: 1(33.3)
  Best Molecular Response: Complete Response: 2(66.7)
  Best Molecular Response: Major Response: 2(66.7)
  Best Molecular Response: No Response: 0
66 mg (N = 4) ESC
  Best Cytogenetic Response: Complete Response: 2(50.0)
  Best Cytogenetic Response: Major Cytogenetic Response: 2(50.0)
  Best Cytogenetic Response: Minimal Response: 1(25.0)
  Best Cytogenetic Response: Minor Response: 0
  Best Cytogenetic Response: No Response: 1(25.0)
  Best Cytogenetic Response: Partial Response: 0
  Best Hematologic Response: Complete Response: 3(75.0)
  Best Hematologic Response: Major Hematologic Response: 3(75.0)
  Best Hematologic Response: No Evidence of Leukemia: 0
  Best Hematologic Response: No Response: 1(25.0)
  Best Molecular Response: Complete Response: 1(25.0)
  Best Molecular Response: Major Response: 1(25.0)
  Best Molecular Response: No Response: 3(75.0)
90 mg (N = 2) ESC
  Best Cytogenetic Response: Complete Response: 0
  Best Cytogenetic Response: Major Cytogenetic Response: 1(50.0)
  Best Cytogenetic Response: Minimal Response: 0
  Best Cytogenetic Response: Minor Response: 0
  Best Cytogenetic Response: No Response: 1(50.0)
  Best Cytogenetic Response: Partial Response: 1(50.0)
  Best Hematologic Response: Complete Response: 2(100)
  Best Hematologic Response: Major Hematologic Response: 2(100)
  Best Hematologic Response: No Evidence of Leukemia: 0
  Best Hematologic Response: No Response: 0
  Best Molecular Response: Complete Response: 0
  Best Molecular Response: Major Response: 1(50.0)
  Best Molecular Response: No Response: 1(50.0)
126 mg (N = 4) ESC
  Best Cytogenetic Response: Complete Response: 2(50.0)
  Best Cytogenetic Response: Major Cytogenetic Response: 2(50.0)
  Best Cytogenetic Response: Minimal Response: 1(25.0)
  Best Cytogenetic Response: Minor Response: 0
  Best Cytogenetic Response: No Response: 1(25.0)
  Best Cytogenetic Response: Partial Response: 0
  Best Hematologic Response: Complete Response: 4(100)
  Best Hematologic Response: Major Hematologic Response: 4(100)
  Best Hematologic Response: No Evidence of Leukemia: 0
  Best Hematologic Response: No Response: 0
  Best Molecular Response: Complete Response: 1(25.0)
  Best Molecular Response: Major Response: 1(25.0)
  Best Molecular Response: No Response: 3(75.0)
174 mg (N = 7) ESC
  Best Cytogenetic Response: Complete Response: 3(42.9)
  Best Cytogenetic Response: Major Cytogenetic Response: 3(42.9)
  Best Cytogenetic Response: Minimal Response: 2(28.6)
  Best Cytogenetic Response: Minor Response: 1(14.3)
  Best Cytogenetic Response: No Response: 0
  Best Cytogenetic Response: Partial Response: 0
  Best Hematologic Response: Complete Response: 4(57.1)
  Best Hematologic Response: Major Hematologic Response: 4(57.1)
  Best Hematologic Response: No Evidence of Leukemia: 0
  Best Hematologic Response: No Response: 2(28.6)
  Best Molecular Response: Complete Response: 1(14.3)
  Best Molecular Response: Major Response: 3(42.9)
  Best Molecular Response: No Response: 3(42.9)
174 mg (N = 10) EXP
  Best Cytogenetic Response: Complete Response: 6(60.0)
  Best Cytogenetic Response: Major Cytogenetic Response: 7(70.0)
  Best Cytogenetic Response: Minimal Response: 3(30.0)
  Best Cytogenetic Response: Minor Response: 0
  Best Cytogenetic Response: No Response: 0
  Best Cytogenetic Response: Partial Response: 1 (10.0)
  Best Hematologic Response: Complete Response: 10(100)
  Best Hematologic Response: Major Hematologic Response: 10(100)
  Best Hematologic Response: No Evidence of Leukemia: 0
  Best Hematologic Response: No Response: 0
  Best Molecular Response: Complete Response: 1(10.0)
  Best Molecular Response: Major Response: 1(10.0)
  Best Molecular Response: No Response: 9(90.0)
204 mg (N = 6) ESC
  Best Cytogenetic Response: Complete Response: 4(66.7)
  Best Cytogenetic Response: Major Cytogenetic Response: 6(100)
  Best Cytogenetic Response: Minimal Response: 0
  Best Cytogenetic Response: Minor Response: 0
  Best Cytogenetic Response: No Response: 0
  Best Cytogenetic Response: Partial Response: 2(33.3)
  Best Hematologic Response: Complete Response: 6(100)
  Best Hematologic Response: Major Hematologic Response: 6(100)
  Best Hematologic Response: No Evidence of Leukemia: 0
